ChEMBL document CHEMBL3588860, “Synthesis and antiproliferative activity of some novel benzo-fused imidazo[1,8]naphthyridinones” (Bioorg Med Chem Lett, 2015)

Assays:
Daudi = test: Antiproliferative activity against human Daudi cells after 72 hrs by MTT assay; type: functional, cell-based
[1] = Antiproliferative activity against human MES-SA/Dx5 cells after 72 hrs by MTT assay; type: functional, cell-based; conditions: MES-SA/Dx5, 72 h
MES-SA = test: Ratio of IC50 for human MES-SA/Dx5 cells to IC50 for human MES-SA cells; type: functional
HCT-116 = test: Antiproliferative activity against human HCT116 cells after 72 hrs by MTT assay; type: functional, cell-based; conditions: HCT-116, 72 h
[2] = Antiproliferative activity against human MES-SA cells after 72 hrs by MTT assay; type: functional, cell-based
[3] = Antiproliferative activity against human FM3 cells after 72 hrs by MTT assay; type: functional, cell-based; conditions: FM3, 72 h
Ishikawa = test: Antiproliferative activity against human Ishikawa cells after 72 hrs by MTT assay; type: functional, cell-based
HeLa = test: Antiproliferative activity against human HeLa cells after 72 hrs by MTT assay; type: functional, cell-based

Row | SMILES | IC50 (Daudi) | IC50 [1] | Ratio IC50 (MES-SA) | IC50 (HCT-116) | IC50 [2] | IC50 [3] | IC50 (Ishikawa) | IC50 (HeLa)
1 | CCN(CC)CCn1c2ccccc2c(=O)c2cc3ncn(C4CCCC4)c3nc21 | 10.6 µM | 15.5 µM | 1.46 | 8.2 µM | 10.6 µM | 28 µM | 28.6 µM | 11.7 µM
2 | CCN(CC)CCn1c2ccccc2c(=O)c2cc3ncn(-c4ccccc4)c3nc21 | 4.93 µM | 10.4 µM | 1.99 | 12.9 µM | 5.2 µM | 4.83 µM | 11.3 µM | 7.27 µM
3 | CC(C)n1cnc2cc3c(=O)c4ccccc4[nH]c3nc21 | 34.7 µM | 46 µM | 1.23 | 37.4 µM | 37.6 µM | 66.7 µM | 62.5 µM | 29.7 µM
4 | O=c1c2ccccc2[nH]c2nc3c(cc12)ncn3C1CCCC1 | 15.3 µM | 17.2 µM | 0.86 | 42.4 µM | 20 µM | 30.1 µM | 60.8 µM | 21.4 µM
5 | O=c1c2ccccc2[nH]c2nc3c(cc12)ncn3-c1ccccc1 | 31.3 µM | 34.4 µM | 0.73 | 73.1 µM | 47.4 µM | 51.1 µM | 50 µM | 27.6 µM
6 | CC(C)n1cnc2cc3c(=O)c4ccccc4n(CCO)c3nc21 | 22.1 µM | 32.6 µM | 0.94 | 40.4 µM | 34.6 µM | 45.7 µM | 66.6 µM | 13.2 µM
7 | O=c1c2ccccc2n(CCO)c2nc3c(cc12)ncn3C1CCCC1 | 19 µM | 22.2 µM | 0.97 | 48.7 µM | 22.9 µM | 66.4 µM | 66.4 µM | 23.4 µM
8 | O=c1c2ccccc2n(CCO)c2nc3c(cc12)ncn3-c1ccccc1 | 20.5 µM | 47.9 µM | 0.93 | 32.9 µM | 51.7 µM | 74.8 µM | 101 µM | 15.3 µM
9 | CC(C)n1cnc2cc3c(=O)c4ccccc4n(CCN(C)C)c3nc21 | 12.9 µM | 16.1 µM | 0.73 | 12.4 µM | 22 µM | 17 µM | 39.4 µM | 9.32 µM
10 | CN(C)CCn1c2ccccc2c(=O)c2cc3ncn(C4CCCC4)c3nc21 | 18.9 µM | 25 µM | 0.76 | 30.4 µM | 32.8 µM | 42.4 µM | 39.1 µM | 28.9 µM
11 | CN(C)CCn1c2ccccc2c(=O)c2cc3ncn(-c4ccccc4)c3nc21 | 33 µM | 41.7 µM | 0.88 | 27.9 µM | 47.3 µM | 29.8 µM | 43.6 µM | 23.3 µM
12 | CCN(CC)CCn1c2ccccc2c(=O)c2cc3ncn(C(C)C)c3nc21 | 18 µM | 23.1 µM | 0.9 | 24.5 µM | 25.7 µM | 50.6 µM | 63.3 µM | 21.6 µM
13 | COc1cccc2c1C(=O)c1c(O)c3c(c(O)c1C2=O)C[C@@](O)(C(=O)CO)C[C@@H]3O[C@H]1C[C@H](N)[C@H](O)[C@H](C)O1 [DOXORUBICIN] | 0.127 µM | 2.81 µM | 80.2 | 0.18 µM | 0.035 µM | 0.123 µM | 0.1 µM | 0.337 µM
14 | O=C1c2c(O)ccc(O)c2C(=O)c2c(NCCNCCO)ccc(NCCNCCO)c21 [MITOXANTRONE] | 0.005 µM | 0.073 µM | 12.17 | 0.025 µM | 0.006 µM | 0.013 µM | 0.01 µM | 0.044 µM
